Measured values published in patent publication US12077503B2, “Substituted cyclic amides and their use as herbicides” (FMC CORPORATION, priority 2015, dated 2024).
Where two headings read alike, the source gives them in different places.

Key:
Format in all cases: in vivo
[1] = test system: Galium (catchweed bedstraw, Galium aparine); test: Test A postemergence; details: Galium, post-emergence, 240 h; for pest or weed control at 125 g/ha: 125 g ai/ha
How it was run: (§1)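 Ratings of 0 (no effect) to 100 (complete control) come from visual comparison with untreated controls roughly 10 d after treatment. Test chemicals, formulated in a non-phytotoxic solvent mixture with surfactant, were applied either as a preemergence directed soil spray on seeded soil or postemergence to one- to two-leaf plants 2 to 10 cm tall.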

[2] = test system: blackgrass (Alopecurus myosuroides); test: Test A postemergence; details: Alopecurus myosuroides, post-emergence, 240 h; for pest or weed control at 125 g/ha: 125 g ai/ha
How it was run: as §1

corn (Zea mays) = test: Test A postemergence; details: Zea mays, post-emergence, 240 h
How it was run: as §1

[3] = test system: barnyardgrass (Echinochloa crus-galli); test: Test A postemergence; details: Echinochloa crus-galli, post-emergence, 240 h; for pest or weed control at 125 g/ha: 125 g ai/ha
How it was run: as §1

[4] = test system: pigweed (Amaranthus retroflexus); test: Test A postemergence; details: Amaranthus retroflexus, post-emergence, 240 h; for pest or weed control at 125 g/ha: 125 g ai/ha
How it was run: as §1

[5] = test system: ryegrass, Italian (Italian ryegrass, Lolium multiflorum); test: Test A postemergence; details: Lolium multiflorum, post-emergence, 240 h; for pest or weed control at 125 g/ha: 125 g ai/ha
How it was run: as §1

[6] = test system: wheat (Triticum aestivum); test: Test A postemergence; details: Triticum aestivum, post-emergence, 240 h; for plant injury at 125 g/ha: 125 g ai/ha
How it was run: as §1

Kochia (Kochia scoparia) [7] = test: Test A postemergence; details: Bassia scoparia, post-emergence, 240 h; for pest or weed control at 125 g/ha: 125 g ai/ha
How it was run: as §1

[8] = test system: ragweed (common ragweed, Ambrosia elatior); test: Test A postemergence; details: Ambrosia artemisiifolia, post-emergence, 240 h; for pest or weed control at 125 g/ha: 125 g ai/ha
How it was run: as §1

[9] = test system: giant foxtail (Setaria faberii); test: Test A postemergence; details: Setaria faberi, post-emergence, 240 h; for pest or weed control at 125 g/ha: 125 g ai/ha
How it was run: as §1

Kochia (Kochia scoparia) [10] = test: Test A preemergence; details: Bassia scoparia, pre-emergence, 240 h; for pest or weed control at 125 g/ha: 125 g ai/ha; for pest or weed control at 500 g/ha: 500 g ai/ha
How it was run: as §1

rice (Oryra sativa) = test: Test B flooded paddy test; details: Oryza sativa, Flood, 250 g ai/ha, read-out: Rice plant response rating
How it was run: (§2)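 Percent control, visually estimated after 13–15 d in the greenhouse on a 0–100 basis, compares treated pots with untreated ones; compound was put into paddy water 3 cm above the soil when plants had two leaves.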

[11] = test system: ducksalad (Heteranthera limosa); test: Test B flooded paddy test; details: Heteranthera limosa, Flood, 250 g ai/ha, read-out: Ducksalad plant response rating
How it was run: as §2

[12] = test system: barnyardgrass (Echinochloa crus-galli); test: Test B flooded paddy test; details: Echinochloa crus-galli, Flood, 250 g ai/ha, read-out: Barnyardgrass plant response rating
How it was run: as §2

[13] = test system: sedge, umbrella (small-flower umbrella sedge, Cyperus difformis); test: Test B flooded paddy test; details: Cyperus difformis, Flood, 250 g ai/ha, read-out: Sedge, Umbrella plant response rating
How it was run: as §2

[14] = preemergence, 0 to 100 scale where 0 is no effect and 100 is complete control, read-out: Kochia plant response rating
[15] = scale of 0 to 100 where 0 is no effect and 100 is complete control
[16] = 0 to 100 scale where 0 is no effect and 100 is complete control

`CN1CC[C@H](c2cccc(Cl)c2)[C@@H](C(=O)Nc2ccccc2S(C)(=O)=O)C1=O` [Compound 923] gave a pest or weed control at 125 g/ha ([1]; Postemergence, visual injury after approximately 10 d, 0 to 100 scale where 0 is no effect and 100 is complete control, read-out: Plant response rating, Galium) of 0%, a pest or weed control at 125 g/ha ([2]; Postemergence, visual injury after approximately 10 d, 0 to 100 scale where 0 is no effect and 100 is complete control, read-out: Plant response rating, Blackgrass) of 0% and a Corn plant response rating (crop injury, 0 = no effect, 100 = complete kill) at 125 g/ha (corn (Zea mays); 125 g ai/ha, Postemergence, visual injury after approximately 10 d, 0 to 100 scale where 0 is no effect and 100 is complete control) of 0%. For the same compound, the pest or weed control at 125 g/ha ([3]; Postemergence, visual injury after approximately 10 d, 0 to 100 scale where 0 is no effect and 100 is complete control, read-out: Plant response rating, Barnyardgrass) was 0%, the pest or weed control at 125 g/ha ([4]; Postemergence, visual injury after approximately 10 d, 0 to 100 scale where 0 is no effect and 100 is complete control, read-out: Plant response rating, Pigweed) was 0% and the pest or weed control at 125 g/ha ([5]; Postemergence, visual injury after approximately 10 d, 0 to 100 scale where 0 is no effect and 100 is complete control, read-out: Plant response rating, Ryegrass, Italian) was 0%. It also gave a plant injury at 125 g/ha ([6]; Postemergence, visual injury after approximately 10 d, 0 to 100 scale where 0 is no effect and 100 is complete control, read-out: Plant response rating, Wheat) of 0%, a pest or weed control at 125 g/ha (Kochia (Kochia scoparia) [7]; Postemergence, visual injury after approximately 10 d, 0 to 100 scale where 0 is no effect and 100 is complete control, read-out: Plant response rating, Kochia) of 0% and a pest or weed control at 125 g/ha ([8]; Postemergence, visual injury after approximately 10 d, 0 to 100 scale where 0 is no effect and 100 is complete control, read-out: Plant response rating, Ragweed) of 0%. The pest or weed control at 125 g/ha ([9]; Postemergence, visual injury after approximately 10 d, 0 to 100 scale where 0 is no effect and 100 is complete control, read-out: Plant response rating, Foxtail, Giant) was 0%, the pest or weed control at 125 g/ha (Kochia (Kochia scoparia) [10]; [14]) was 0% and the pest or weed control at 500 g/ha (Kochia (Kochia scoparia) [10]; Preemergence, visual injury vs untreated controls after approximately 10 d, read-out: Kochia plant response rating (0 to 100 scale where 0 is no effect and 100 is complete control)) was 0%. The pest or weed control at 250 g/ha (rice (Oryra sativa); [15]) was 0%, the pest or weed control at 250 g/ha [11, 15] was 0% and the pest or weed control at 250 g/ha [12, 15] was 0%. It also gave a pest or weed control at 250 g/ha [13, 15] of 0%.
Compound `CN1CC[C@H](c2ccc(C(F)(F)F)cc2)[C@@H](C(=O)Nc2ccccc2C(F)(F)F)C1=O` [Compound 1224] has a pest or weed control at 125 g/ha ([1]; postemergence, visual injury vs untreated controls after approx. 10 d, 0 = no effect, 100 = complete control, read-out: Galium plant response rating (0 to 100 scale)) of 0%, a pest or weed control at 500 g/ha ([1]; 500 g ai/ha, postemergence, 0 to 100 scale, 0 is no effect, 100 is complete control, read-out: Galium plant response rating) of 40% and a pest or weed control at 125 g/ha ([2]; postemergence, visual injury vs untreated controls after approx. 10 d, 0 = no effect, 100 = complete control, read-out: Blackgrass plant response rating (0 to 100 scale)) of 0%. The pest or weed control at 500 g/ha ([2]; 500 g ai/ha, postemergence, 0 to 100 scale, 0 is no effect, 100 is complete control, read-out: Blackgrass plant response rating) was 0%, the plant injury at 125 g/ha (corn (Zea mays); 125 g ai/ha, postemergence, visual injury vs untreated controls after approx. 10 d, 0 = no effect, 100 = complete control, read-out: Corn plant response rating (0 to 100 scale)) was 0% and the plant injury at 500 g/ha (corn (Zea mays); 500 g ai/ha, postemergence, 0 to 100 scale, 0 is no effect, 100 is complete control, read-out: Corn plant response rating) was 0%. The pest or weed control at 125 g/ha ([3]; postemergence, visual injury vs untreated controls after approx. 10 d, 0 = no effect, 100 = complete control, read-out: Barnyardgrass plant response rating (0 to 100 scale)) was 70%, the pest or weed control at 500 g/ha ([3]; 500 g ai/ha, postemergence, 0 to 100 scale, 0 is no effect, 100 is complete control, read-out: Barnyardgrass plant response rating) was 90% and the pest or weed control at 125 g/ha ([4]; postemergence, visual injury vs untreated controls after approx. 10 d, 0 = no effect, 100 = complete control, read-out: Pigweed plant response rating (0 to 100 scale)) was 0%. For the same compound, the pest or weed control at 500 g/ha ([4]; 500 g ai/ha, postemergence, 0 to 100 scale, 0 is no effect, 100 is complete control, read-out: Pigweed plant response rating) was 20%, the pest or weed control at 125 g/ha ([5]; postemergence, visual injury vs untreated controls after approx. 10 d, 0 = no effect, 100 = complete control, read-out: Ryegrass, Italian plant response rating (0 to 100 scale)) was 0% and the pest or weed control at 500 g/ha ([5]; 500 g ai/ha, postemergence, 0 to 100 scale, 0 is no effect, 100 is complete control, read-out: Ryegrass, Italian plant response rating) was 0%. It also gave a plant injury at 125 g/ha ([6]; postemergence, visual injury vs untreated controls after approx. 10 d, 0 = no effect, 100 = complete control, read-out: Wheat plant response rating (0 to 100 scale)) of 0%, a plant injury at 500 g/ha ([6]; 500 g ai/ha, postemergence, 0 to 100 scale, 0 is no effect, 100 is complete control, read-out: Wheat plant response rating) of 0% and a pest or weed control at 125 g/ha (Kochia (Kochia scoparia) [7]; postemergence, visual injury vs untreated controls after approx. 10 d, 0 = no effect, 100 = complete control, read-out: Kochia plant response rating (0 to 100 scale)) of 0%. For the same compound, the pest or weed control at 500 g/ha (Kochia (Kochia scoparia) [7]; 500 g ai/ha, postemergence, 0 to 100 scale, 0 is no effect, 100 is complete control, read-out: Kochia plant response rating) was 0%, the pest or weed control at 125 g/ha ([8]; postemergence, visual injury vs untreated controls after approx. 10 d, 0 = no effect, 100 = complete control, read-out: Ragweed plant response rating (0 to 100 scale)) was 0% and the pest or weed control at 500 g/ha ([8]; 500 g ai/ha, postemergence, 0 to 100 scale, 0 is no effect, 100 is complete control, read-out: Ragweed plant response rating) was 0%. For the same compound, the pest or weed control at 125 g/ha ([9]; postemergence, visual injury vs untreated controls after approx. 10 d, 0 = no effect, 100 = complete control, read-out: Foxtail, Giant plant response rating (0 to 100 scale)) was 30%, the pest or weed control at 500 g/ha ([9]; 500 g ai/ha, postemergence, 0 to 100 scale, 0 is no effect, 100 is complete control, read-out: Foxtail, Giant plant response rating) was 70% and the pest or weed control at 125 g/ha (Kochia (Kochia scoparia) [10]; preemergence, visual injury rating, 0 to 100 scale where 0 is no effect and 100 is complete control, approximately 10 d, read-out: Kochia plant response rating) was 0%. The pest or weed control at 500 g/ha (Kochia (Kochia scoparia) [10]; [14]) was 0%, the pest or weed control at 250 g/ha (rice (Oryra sativa); [16]) was 0% and the pest or weed control at 250 g/ha [11, 16] was 70%. For the same compound, the pest or weed control at 250 g/ha [12, 16] was 0% and the pest or weed control at 250 g/ha [13, 16] was 0%.
